According to PMC4006130 (Pflugers Archiv, 2013):

Molecular target: NHE1 (Rattus norvegicus, UniProt P26431)
Test: BCECF intracellular pH recovery after ammonium prepulse
Assay type: cell-based

NHE1, sequence (P26431 whole entry): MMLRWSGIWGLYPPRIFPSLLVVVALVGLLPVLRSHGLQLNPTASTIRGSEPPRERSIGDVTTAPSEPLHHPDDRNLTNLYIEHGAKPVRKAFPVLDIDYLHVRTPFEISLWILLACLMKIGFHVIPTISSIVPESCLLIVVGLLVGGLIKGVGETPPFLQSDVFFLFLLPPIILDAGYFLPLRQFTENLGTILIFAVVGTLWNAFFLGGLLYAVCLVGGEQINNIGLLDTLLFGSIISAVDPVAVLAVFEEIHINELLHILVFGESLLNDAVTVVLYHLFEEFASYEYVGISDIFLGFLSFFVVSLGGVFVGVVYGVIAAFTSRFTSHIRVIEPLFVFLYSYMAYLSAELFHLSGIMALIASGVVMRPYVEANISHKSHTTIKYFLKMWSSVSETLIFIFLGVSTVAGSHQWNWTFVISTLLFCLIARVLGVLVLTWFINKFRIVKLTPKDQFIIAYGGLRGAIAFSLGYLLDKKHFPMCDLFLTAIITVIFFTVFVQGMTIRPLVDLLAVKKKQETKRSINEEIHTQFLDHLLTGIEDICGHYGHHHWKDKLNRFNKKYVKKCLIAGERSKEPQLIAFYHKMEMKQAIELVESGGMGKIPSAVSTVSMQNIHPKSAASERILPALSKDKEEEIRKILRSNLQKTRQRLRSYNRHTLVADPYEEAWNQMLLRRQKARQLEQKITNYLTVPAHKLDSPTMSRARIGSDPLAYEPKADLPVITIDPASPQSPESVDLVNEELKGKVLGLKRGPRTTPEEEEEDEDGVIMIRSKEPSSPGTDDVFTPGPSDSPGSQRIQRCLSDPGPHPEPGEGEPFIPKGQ

**Q.** With CC(C)c1ccc(C(=O)NC(=N)N)cc1S(C)(=O)=O [cariporide] as the compound, how does the IC50 read?
**A.** Its IC50 is 1100 nM.
